Literature values, collected in paper PMC6722509, “Design and In Vivo Pharmacokinetic Evaluation of Triamcinolone Acetonide Microcrystals-Loaded PLGA Microsphere for Increased Drug Retention in Knees after Intra-Articular Injection” (Pharmaceutics, 2019).

Tests used:
[1] = 0.25 mg per knee, rats

Compound: CC1(C)O[C@@H]2C[C@H]3[C@@H]4CCC5=CC(=O)C=C[C@]5(C)[C@@]4(F)[C@@H](O)C[C@]3(C)[C@]2(C(=O)CO)O1 [TA, triamcinolone acetonide]
- Solubility in ACN: < 1000 µg/mL
- Tolerability of IA dose [1]: well tolerated
